Test results reported in PubChem BioAssay AID328 (DTP/NCI, 2004).
Where “and” joins values, the source holds several entries; their conditions need not be identical. Equal values may be shown once. Toxic doses and inconclusive results are not listed.

Test system: BDF1 mice, P388 leukemia ip, median survival T/C
Assay: NCI In Vivo Anticancer Drug Screen. Data for tumor model P388 Leukemia (intraperitoneal) in B6D2F1 (BDF1) mice
Settings: endpoint: median survival time, higher = longer survival
Procedure, shortened: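 Read-out is survival of treated animals expressed relative to the vehicle group, as a T/C ratio.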

[1] = dose: 50.0 mg/kg/injection, schedule: Q01DX009 (ip), vehicle: saline
[2] = dose: 25.0 mg/kg/injection, schedule: Q01DX009 (ip), vehicle: saline

Compound: C[n+]1cc2cc(O)c(O)cc2c2ccc3cc(O)c(O)cc3c21
- T/C (dose: 20.0 mg/kg/injection, schedule: Q01DX009 (ip), vehicle: saline): 104 % of control
- T/C (dose: 40.0 mg/kg/injection, schedule: Q01DX009 (ip), vehicle: saline): 96 % of control
- T/C (dose: 80.0 mg/kg/injection, schedule: Q01DX009 (ip), vehicle: saline): 91 % of control
- T/C (dose: 120.0 mg/kg/injection, schedule: Q01DX009 (ip), vehicle: saline): 86 % of control
- T/C (dose: 240.0 mg/kg/injection, schedule: Q01DX009 (ip), vehicle: saline): 106 % of control

Compound: Nc1cc(Cl)ccc1O
- T/C [1]: 114 % of control
- T/C (dose: 100.0 mg/kg/injection, schedule: Q01DX009 (ip), vehicle: saline): 97 % of control
- T/C (dose: 200.0 mg/kg/injection, schedule: Q01DX009 (ip), vehicle: saline): 116 % of control

Compound: O=NN(CCCl)C(=O)NC1CCCCC1
- T/C (dose: 2.4 mg/kg/injection, schedule: Q01DX009 (ip), vehicle: Klucel (hydroxypropylcellulose) (HPC)): 116 % of control
- T/C (dose: 3.6 mg/kg/injection, schedule: Q01DX009 (ip), vehicle: Klucel (hydroxypropylcellulose) (HPC)): 164 % of control
- T/C (dose: 4.0 mg/kg/injection, schedule: Q01DX009 (ip), vehicle: saline with Tween-80): 113 % of control
- T/C (dose: 8.0 mg/kg/injection, schedule: Q01DX009 (ip), vehicle: saline with Tween-80): 229 % of control
- T/C (dose: 12.5 mg/kg/injection, schedule: Q01DX009 (ip), vehicle: Klucel (hydroxypropylcellulose) (HPC)): 153 % of control
- T/C (dose: 12.5 mg/kg/injection, schedule: Q01DX009 (ip), vehicle: saline): 178 % of control
- T/C (dose: 16.0 mg/kg/injection, schedule: Q01DX009 (ip), vehicle: Klucel (hydroxypropylcellulose) (HPC)): 249 % of control
- T/C (dose: 16.0 mg/kg/injection, schedule: Q01DX009 (ip), vehicle: saline with Tween-80): 283 % of control
- T/C (dose: 25.0 mg/kg/injection, schedule: Q01DX001 (ip), vehicle: Klucel (hydroxypropylcellulose) (HPC)): 220 % of control
- T/C [2]: 228 % of control
- T/C (dose: 30.0 mg/kg/injection, schedule: Q01DX001 (ip), vehicle: saline): 103 % of control
- T/C (dose: 32.0 mg/kg/injection, schedule: Q01DX009 (ip), vehicle: saline with Tween-80): 179 % of control
- T/C (dose: 35.0 mg/kg/injection, schedule: Q01DX009 (ip), vehicle: Klucel (hydroxypropylcellulose) (HPC)): 103 % of control
- T/C (dose: 40.0 mg/kg/injection, schedule: Q01DX001 (ip), vehicle: saline): 548 % of control and 183 % of control
- T/C (dose: 50.0 mg/kg/injection, schedule: Q01DX001 (ip), vehicle: Klucel (hydroxypropylcellulose) (HPC)): 113 % of control
- T/C (dose: 50.0 mg/kg/injection, schedule: Q01DX001 (ip), vehicle: saline): 174 % of control
- T/C (dose: 60.0 mg/kg/injection, schedule: Q01DX001 (oral), vehicle: carboxymethylcellulose (CMC)): 526 % of control and 166 % of control
- T/C (dose: 64.0 mg/kg/injection, schedule: Q01DX009 (ip), vehicle: saline with Tween-80): 88 % of control
- T/C (dose: 70.0 mg/kg/injection, schedule: Q01DX001 (ip), vehicle: saline): 256 % of control
- T/C (dose: 90.0 mg/kg/injection, schedule: Q01DX001 (oral), vehicle: carboxymethylcellulose (CMC)): 210 % of control and 219 % of control
- T/C (dose: 100.0 mg/kg/injection, schedule: Q01DX001 (ip), vehicle: carboxymethylcellulose (CMC)): 219 % of control
- T/C (dose: 135.0 mg/kg/injection, schedule: Q01DX001 (oral), vehicle: carboxymethylcellulose (CMC)): 173 % of control
- T/C (dose: 150.0 mg/kg/injection, schedule: Q01DX001 (ip), vehicle: carboxymethylcellulose (CMC)): 526 % of control
- T/C (dose: 200.0 mg/kg/injection, schedule: Q01DX001 (oral), vehicle: carboxymethylcellulose (CMC)): 236 % of control

Compound: CCCCc1c(C)[nH]c(=S)[nH]c1=O
- T/C (dose: 100.0 mg/kg/injection, schedule: Q04DX003 (ip), vehicle: saline with Tween-80): 95 % of control
- T/C (dose: 200.0 mg/kg/injection, schedule: Q04DX003 (ip), vehicle: saline with Tween-80): 109 % of control
- T/C (dose: 400.0 mg/kg/injection, schedule: Q04DX003 (ip), vehicle: saline with Tween-80): 95 % of control

Compound: Cn1c(N)c(N=Nc2ccccc2)c(=O)[nH]c1=O
- T/C (dose: 100.0 mg/kg/injection, schedule: Q01DX001 (ip), vehicle: saline with Tween-80): 100 % of control
- T/C (dose: 200.0 mg/kg/injection, schedule: Q01DX001 (ip), vehicle: saline with Tween-80): 102 % of control
- T/C (dose: 400.0 mg/kg/injection, schedule: Q01DX001 (ip), vehicle: saline with Tween-80): 90 % of control

Compound: C1=CC=CCC=C1
- T/C (dose: 12.5 mg/kg/injection, schedule: Q04DX003 (ip), vehicle: saline): 100 % of control
- T/C [2]: 150 % of control
- T/C (dose: 25.0 mg/kg/injection, schedule: Q04DX003 (ip), vehicle: saline): 113 % of control
- T/C [1]: 111 % of control
- T/C (dose: 50.0 mg/kg/injection, schedule: Q04DX003 (ip), vehicle: saline): 109 % of control
